Key:
c-Met = c-Met (Homo sapiens (Human), UniProt P08581); assay: Enzymatic inhibitory activity, mobility shift assay, c-Met; format: biochemical; conditions: kinase mobility shift assay
Text: (§1) Compounds against MET, SRC and CSF1R kinases were screened by use of mobility shift assay. The core of this screening platform was the MSA based on microfluidic chip technology, which applied the basic idea of capillary electrophoresis to a microfluidic environment. The substrate used in the experiment was a polypeptide with fluorescent labeling. Under the catalysis of the enzyme in the reaction system, the substrate was converted into a product, and it carried charge also changed accordingly. MSA utilized the difference in charge between the substrate and the product to separate them, and detect them separately.
(§2) The operation method is briefly described as follows:
(§3) The powders of the compound were dissolved in 100% DMSO to make a 10 mM stock solution. The initial test concentration of the compound was 10,000 nM, 3-fold serial dilution, 10 concentrations, and repeated hole detection. […] A stop detection solution was added to stop the enzymatic reaction, and the conversion rate was read with Caliper EZ Reader II.
(§4) wherein: Conversion%_sample is the conversion rate reading of the sample; Conversion%_min: the average value of the negative control wells, representing the conversion rate readings of the wells without enzyme activity; Conversion%_max: the average ratio of the positive control wells, representing the conversion rate readings of the wells without compound inhibition.
(§5) Dose-response curve fitting: with the log value of the concentration as the X-axis, and the percentage inhibition rate as the Y-axis, the log(inhibitor) vs. response-Variable slope of the analysis software GraphPad Prism 5 was used to fit the dose-response curve, thereby obtaining IC50 values of each compound against inhibition of enzyme activity.

CSF1R = CSF1R (Homo sapiens (Human), UniProt P07333); assay: Enzymatic inhibitory activity, mobility shift assay, CSF1R; format: biochemical; conditions: kinase mobility shift assay
Text: as §1, §2, §3, §4, §5

SRC = SRC (Homo sapiens (Human), UniProt P12931); assay: Enzymatic inhibitory activity, mobility shift assay, SRC; conditions: read-out: SRC IC50; kinase mobility shift assay
Procedure: The powders of the compound were dissolved in 100% DMSO to make a 10 mM stock solution. […] A stop detection solution was added to stop the enzymatic reaction, and the conversion rate was read with Caliper EZ Reader II.

Ba/F3-TEL-CSF1R = assay: Cell viability assay against Ba/F3-TEL-CSF1R cells (CellTiter-Glo); format: cell-based; conditions: 72 hours, read-out: Baf3-TEL CSF1R IC50
Procedure: (§6) Starting from 200 μM, the compound was subjected to a 3-fold gradient with DMSO, and a total of 9 concentrations were diluted to prepare a 200-fold drug solution. 3 μl of the 200-fold concentration compound was diluted with 197 μl of complete medium to obtain a 3-fold concentration compound. 50 μl of the latter was took and added to the cell well plate, and culture was continued for 72 hours. The cell culture plate was equilibrated to room temperature before assay, and 40 μL of CellTiter-Glo (Promega, Cat# G7571) was added to each well, and the cells were lysed by shaking for two minutes. The cell plate was then left at room temperature for 60 minutes to stabilize the luminescence signal. Luminescence values were read using a PerkinElemer Envision multifunctional plate reader.
(§7) Data analysis: • Luminescence values were processed using the following formula:
(§8) %Inh=(Max signal−Compound signal)/(Max signal−Min signal)×100 • Max signal: value of a DMSO treatment group; • Min signal: value of a blank medium group.
(§9) The processed data were analyzed using GraphPad Prism 5.0 software, and nonlinear S-curve regression was used to fit the data to derive dose-response curves from which IC50 values were calculated.

[1] = tested on: H1975 cells (L858R and T790M double mutations); assay: Synergistic killing of tumor cells with AZD9291, H1975; format: cell-based, human; conditions: 72 hours
Procedure: (§10) Human lung cancer cells H1975 cells (L858R and T790M double mutations) and HCC827 cells were incubated in an incubator (37° C., 5% CO2) with 1640 medium plus 10% FBS (fetal bovine serum) and 1% P/S (penicillin/ streptomycin) for culture. In the assay of the compound, H1975 cells or HCC827 were plated in a 96-well plate (Corning) at a concentration of 3000 cells/195 μL per well, and the compound was serially diluted to 11 concentrations starting from 10 mM, and 4 μL of each concentration was added into 96 μL of 1640 cluture medium and diluted to form 25× compound, then 5 μL was took and added to 195 μL of cell culture medium (DMSO final concentration is 0.1%, v/v). After 72 hours of treatment, 35 μL of CellTiter-Blue® (purchased from Promega) was added. The fluorescent signal was measured on Flex Station3 (Molecular Devices) according to the operating procedure of the manual, and the IC50 value of inhibition on cell proliferation of the compound was calculated using GraphPad Prism5.0. The Chou-Talalay combination index method was used to calculate the effect of the combination. The combination index (Col) value 0.9≤CI≤1.1 is an additive effect, 0.8≤CI<0.9 is a low synergistic effect, 0.6≤CI<0.8 is a moderate synergistic effect, and 0.4 <CI<0.6 is highly synergistic, and 0.2≤CI<0.4 is strong synergistic.

[2] = tested on: HCC827 cells (MET overexpression); assay: Synergistic killing of tumor cells with AZD9291, HCC827; format: cell-based, human; conditions: 72 hours
Procedure: as §10

[3] = Pharmacokinetic experiments in rats; format: in vivo; conditions: male SD rats, 1 mg/kg, oral gavage and intravenous injection
Procedure: Male SD rats were divided into groups, 3 rats in each group, and the compound of the Examples (1 mg/kg) was given by oral, single gavage and intravenous injection, respectively. The animals were fasted overnight before the experiments, and the fasting time was from 10 hours before administration to 4 hours after administration. Blood was collected at 0.25, 0.5, 1, 2, 4, 8 and 24 hours after administration in the oral group, and at 0.083, 0.25, 0.5, 1, 2, 4, 8 and 24 hours after injection in the intravenous injection group. After anesthesia with isoflurane using a small animal anesthesia machine, 0.3 mL of whole blood was collected through the fundus venous plexus and placed in a heparin anticoagulant tube. The sample was centrifuged at 4° C.and 4000 rpm for 5 minutes, the plasma was transferred to a centrifuge tube, and placed at […] and stored until analysis. Plasma samples were extracted by protein precipitation, and the extract was analyzed by LC/MS/MS.

[4] = Blood-brain distribution experiments in rats; format: in vivo; conditions: male SD rats
Procedure: The male SD rats were divided into groups, 12 in each group, and the compound of the Examples (10 mg/kg) was administered orally or by gavage. The animals were fasted overnight before the experiments, and the fasting time was from 10 hours before administration to 4 hours after administration. According to the previous pharmacokinetic data, the rats in the Example 1 group were killed at 0.25, 0.5, 2 and 6 hours after administration; the rats in the TPX-0022 group were killed at 0.25, 1, 4 and 8 hours after administration, and blood and brain tissue were collected. After the samples were processed, they were centrifuged at 4° C., 4000 rpm for 5 min, and the plasma was transferred to a centrifuge tube and stored at −80° C.until analysis. Plasma samples were extracted by protein precipitation, and the extract was analyzed by LC/MS/MS.

SNU-5 cells = assay: Cell viability assay against SNU-5 cells (CellTiter-Glo); format: cell-based; conditions: Homo sapiens, 72 hours
Procedure: Human gastric cancer cell line SNU-5 culture medium was IMDM basal culture medium supplemented with 10% FBS (fetal bovine serum) and 1% P/S (penicillin/streptomycin), Ba/F3-TEL-CSF1R stably transfected cell line medium was RPMI-1640 medium supplemented with 10% FBS and 1% P/S. Both cell lines were cultured in a carbon dioxide incubator at 37° C. with a CO2 concentration of 5%.
as §6, with “In the assay of compounds, SNU-5 and Ba/F3-TEL-CSF1R cells were plated in 96-well cell culture plates (Corning, Cat# 3610) at a concentration of 3000 cells/100 μL per well, and cultured overnight. Starting” for “Starting”
as §7, §8, §9

HCC827 cells = assay: Cell viability assay against HCC827 cells (CellTiter-Glo); format: cell-based, human; conditions: 72 hours
Procedure: Human non-small cell lung cancer cells, HCC827 cells, were cultured in an incubator (37° C., 5% CO2) with 1640 medium plus 10% FBS (fetal bovine serum) and 1% P/S (penicillin/streptomycin). In the assay of the compound, the HCC827 cells were plated in a 96-well transparent flat-bottomed black wall plate (Corning, Cat# 3603) at a concentration of 3000 cells/90 uL per well, and the compound was diluted 11 times in a 3-fold gradient starting from 10 mM, and prepared a 10-fold drug solution. Then 10 μL was taken and added to 90 μL of cell culture medium (DMSO final concentration was 0.1%, v/v). After 72 hours of treatment, 100 μL of CellTiter-Glo (Promega, Cat#G7572) was added, cells were lysed by shaking on an orbital shaker for 5 minutes. The cell plate was then left at room temperature for 20 minutes to stabilize the luminescence signal. Luminescence values were read with a SpectraMax Multilabel Microplate Reader (MD, 2104-0010A).
Data were analyzed using GraphPad Prism 5.0 software, and nonlinear S-curve regression was used to fit the data to derive dose-response curves from which IC50 values were calculated.
Cell Viability (%)=(Lumdrug to be tested−Lumculture medium control)/(Lumcell control−Lumculture medium control)×100%.

CSF1R, sequence (P07333 20-972): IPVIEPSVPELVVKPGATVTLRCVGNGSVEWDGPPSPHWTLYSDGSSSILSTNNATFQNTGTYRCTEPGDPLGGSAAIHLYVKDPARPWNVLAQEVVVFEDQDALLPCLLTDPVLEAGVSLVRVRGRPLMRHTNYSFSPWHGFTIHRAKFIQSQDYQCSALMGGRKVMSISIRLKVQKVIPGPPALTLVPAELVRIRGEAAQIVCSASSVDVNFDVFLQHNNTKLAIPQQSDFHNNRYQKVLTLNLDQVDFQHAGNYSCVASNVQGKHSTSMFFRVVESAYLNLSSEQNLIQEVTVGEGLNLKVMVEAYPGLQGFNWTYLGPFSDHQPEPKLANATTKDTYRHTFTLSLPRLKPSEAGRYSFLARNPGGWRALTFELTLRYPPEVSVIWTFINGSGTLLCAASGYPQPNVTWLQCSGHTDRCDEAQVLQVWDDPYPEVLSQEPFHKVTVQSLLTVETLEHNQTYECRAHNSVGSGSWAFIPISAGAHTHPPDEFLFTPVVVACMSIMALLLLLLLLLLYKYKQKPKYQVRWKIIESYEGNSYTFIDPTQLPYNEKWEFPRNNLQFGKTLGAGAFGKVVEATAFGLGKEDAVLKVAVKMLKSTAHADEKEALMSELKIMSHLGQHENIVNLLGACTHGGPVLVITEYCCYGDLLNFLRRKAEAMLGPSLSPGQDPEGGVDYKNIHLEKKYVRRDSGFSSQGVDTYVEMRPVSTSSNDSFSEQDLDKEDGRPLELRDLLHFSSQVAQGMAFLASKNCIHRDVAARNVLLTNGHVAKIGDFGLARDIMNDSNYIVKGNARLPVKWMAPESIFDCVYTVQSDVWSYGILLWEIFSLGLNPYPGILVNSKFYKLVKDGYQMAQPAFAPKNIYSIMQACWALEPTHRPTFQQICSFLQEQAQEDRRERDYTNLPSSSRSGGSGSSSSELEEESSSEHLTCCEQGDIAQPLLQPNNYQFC
c-Met, sequence (P08581 25-1390): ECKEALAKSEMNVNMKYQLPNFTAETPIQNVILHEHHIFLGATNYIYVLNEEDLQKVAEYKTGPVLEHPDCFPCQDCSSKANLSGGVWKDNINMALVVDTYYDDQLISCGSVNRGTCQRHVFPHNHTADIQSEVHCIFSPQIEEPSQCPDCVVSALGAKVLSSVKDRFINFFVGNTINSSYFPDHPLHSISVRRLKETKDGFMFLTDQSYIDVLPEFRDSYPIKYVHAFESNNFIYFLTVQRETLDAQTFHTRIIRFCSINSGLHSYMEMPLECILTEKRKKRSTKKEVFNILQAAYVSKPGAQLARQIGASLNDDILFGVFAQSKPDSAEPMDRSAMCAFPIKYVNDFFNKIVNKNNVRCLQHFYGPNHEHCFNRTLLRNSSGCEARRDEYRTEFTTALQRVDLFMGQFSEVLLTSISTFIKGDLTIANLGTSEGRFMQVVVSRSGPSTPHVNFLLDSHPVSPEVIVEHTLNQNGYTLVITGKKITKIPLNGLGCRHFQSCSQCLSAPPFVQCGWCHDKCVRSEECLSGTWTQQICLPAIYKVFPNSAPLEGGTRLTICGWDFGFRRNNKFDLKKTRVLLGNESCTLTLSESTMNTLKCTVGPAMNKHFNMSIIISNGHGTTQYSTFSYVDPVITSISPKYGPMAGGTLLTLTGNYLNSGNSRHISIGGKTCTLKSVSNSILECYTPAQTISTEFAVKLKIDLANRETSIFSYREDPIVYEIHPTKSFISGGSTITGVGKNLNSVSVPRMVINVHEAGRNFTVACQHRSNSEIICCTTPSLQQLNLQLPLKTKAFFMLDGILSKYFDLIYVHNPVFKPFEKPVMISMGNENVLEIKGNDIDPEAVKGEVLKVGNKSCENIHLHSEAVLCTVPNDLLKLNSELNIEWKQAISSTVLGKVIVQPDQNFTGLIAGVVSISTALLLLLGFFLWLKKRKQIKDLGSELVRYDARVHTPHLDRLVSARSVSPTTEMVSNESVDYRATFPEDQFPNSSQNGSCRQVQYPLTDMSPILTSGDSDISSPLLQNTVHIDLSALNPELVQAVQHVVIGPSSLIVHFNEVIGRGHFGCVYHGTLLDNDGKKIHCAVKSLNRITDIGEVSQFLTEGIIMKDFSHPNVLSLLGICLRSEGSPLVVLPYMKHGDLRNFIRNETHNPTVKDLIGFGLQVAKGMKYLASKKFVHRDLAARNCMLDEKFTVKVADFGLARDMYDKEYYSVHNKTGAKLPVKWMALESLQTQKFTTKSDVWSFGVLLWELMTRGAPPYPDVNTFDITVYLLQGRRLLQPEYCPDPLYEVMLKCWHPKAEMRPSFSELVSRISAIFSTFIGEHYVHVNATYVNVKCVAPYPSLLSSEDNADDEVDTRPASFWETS
SRC, sequence (P12931 whole entry, looked up): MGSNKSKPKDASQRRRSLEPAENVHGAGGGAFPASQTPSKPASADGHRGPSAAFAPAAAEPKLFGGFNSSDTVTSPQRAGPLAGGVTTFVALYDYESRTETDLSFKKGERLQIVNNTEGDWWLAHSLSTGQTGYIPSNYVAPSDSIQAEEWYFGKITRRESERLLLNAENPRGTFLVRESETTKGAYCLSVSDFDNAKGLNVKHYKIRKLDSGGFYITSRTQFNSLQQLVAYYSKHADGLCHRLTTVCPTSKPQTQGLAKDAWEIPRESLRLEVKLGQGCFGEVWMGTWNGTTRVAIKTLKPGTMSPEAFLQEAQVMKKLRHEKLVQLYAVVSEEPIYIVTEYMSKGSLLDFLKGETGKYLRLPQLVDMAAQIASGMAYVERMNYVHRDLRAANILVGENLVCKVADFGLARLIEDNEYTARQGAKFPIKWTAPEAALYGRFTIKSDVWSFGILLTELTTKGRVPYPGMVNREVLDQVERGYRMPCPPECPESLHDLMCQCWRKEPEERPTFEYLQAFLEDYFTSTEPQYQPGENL

| IC50 (c-Met) [nM] | IC50 (CSF1R) [nM] | IC50 (SRC) [nM] | IC50 (Ba/F3-TEL-CSF1R) [nM] | Kp ([4]; Sprague-Dawley (SD), rat, brain / plasma, oral, 10 mg/kg gavage, 0.25, 0.5, 2 and 6 hours, read-out: drug brain/blood distribution ratio) | entry into brain tissue ([4]; 10 mg/kg gavage) | IC50 (SNU-5 cells) [nM] | SMILES | combination effect with AZD9291 (Chou-Talalay combination index) [1] | combination effect with AZD9291 (Chou-Talalay combination index) [2] | pharmacokinetic properties [3] | inhibitory effect on HCC827 cells (HCC827 cells) |
| --- | --- | --- | --- | --- | --- | --- | --- | --- | --- | --- | --- |
| 85 | > 10000 | 289 | – | – | – | – | C[C@H]1COC(=O)c2cnn3ccc(nc23)N[C@H](C)c2cc(F)ccc2O1 [Comparative Compound 42, reference compound] | – | – | – | – |
| 0.93 | 0.42 | 15 | 3.4 | 1.16 to 6.4 | can enter the brain tissue | 1.83 | CCN1Cc2c(ccc(F)c2C#N)O[C@@H](C)COC(=O)c2cnn3ccc1nc23 [Example 1, (S, 1^3E, 1^4E)-2-ethyl-45-fluoro-6-methyl-9-oxo-5,8-dioxa-2-aza-1(5,3)-pyrazolo[1,5-a]pyrimidine-4(1,2)-benzocyclononane-4^6-carbonitrile] | moderate to high synergistic effect | moderate to high synergistic effect | better pharmacokinetic and pharmacokinetic properties | very obvious inhibitory effect |
| 1.8 | 2.2 | 30 | 7 | – | – | 3.36 | CCN1Cc2c(ccc(F)c2C#N)O[C@@H](C)COC(=O)c2c(N)nn3ccc1nc23 [Example 2, (S, 1^3E, 1^4E)-1^2-amino-2-ethyl-4^5-fluoro-6-methyl-9-oxo-5,8-dioxa-2-aza-1(5,3)-pyrazolo[1,5-a]pyrimidine-4(1,2)-benzocyclononane-4^6 carbonitrile] | – | – | better pharmacokinetic and pharmacokinetic properties | – |

| SMILES | IC50 (c-Met) [nM] | IC50 (CSF1R) [nM] | IC50 (SRC) [nM] | IC50 (Ba/F3-TEL-CSF1R) [nM] | Kp ([4]; Sprague-Dawley (SD), rat, brain / plasma, oral, 10 mg/kg gavage, 0.25, 0.5, 2 and 6 hours, read-out: drug brain/blood distribution ratio) | entry into brain tissue ([4]; 10 mg/kg gavage) | IC50 (SNU-5 cells) [nM] | combination effect with AZD9291 (Chou-Talalay combination index) [1] | combination effect with AZD9291 (Chou-Talalay combination index) [2] | pharmacokinetic properties [3] | inhibitory effect on HCC827 cells (HCC827 cells) |
| --- | --- | --- | --- | --- | --- | --- | --- | --- | --- | --- | --- |
| CCN1Cc2c(ccc(F)c2C#N)O[C@@H](C)CNC(=O)c2c(N)nn3ccc1nc23 [TPX-0022, reference compound] | – | – | 7.5 | – | – | – | 6.26 | – | – | – | – |

From patent US20240132517A1, “MACROCYCLIC COMPOUND, PHARMACEUTICAL COMPOSITION, AND USE THEREOF” (GOHARMONY THERAPEUTICS (SHENZHEN) CO., LTD., priority 2021, published 2024)
